Measured values published in patent US12344618B2, “Heterotricyclic derivative compound and use of same” (HANMI PHARMACEUTICAL CO., LTD., priority 2019, dated 2025).

Columns and labels:
EZH2 = EZH2 (Homo sapiens, UniProt Q15910); assay: Inhibitory activity against EZH2 methyltransferase (radiometric scintillation proximity assay); settings: Enzyme inhibitory activity (IC50, nM) EZH2, 2.3 nmol/L enzyme, 90 minutes, room temperature;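 note: Read-out is substrate peptide methylation, captured on streptavidin-coated SPA beads and counted by scintillation, with the reaction run in Tris-HCl buffer at pH 8.0 containing 1% DMSO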
Sequence of EZH2 (Q15910 whole entry): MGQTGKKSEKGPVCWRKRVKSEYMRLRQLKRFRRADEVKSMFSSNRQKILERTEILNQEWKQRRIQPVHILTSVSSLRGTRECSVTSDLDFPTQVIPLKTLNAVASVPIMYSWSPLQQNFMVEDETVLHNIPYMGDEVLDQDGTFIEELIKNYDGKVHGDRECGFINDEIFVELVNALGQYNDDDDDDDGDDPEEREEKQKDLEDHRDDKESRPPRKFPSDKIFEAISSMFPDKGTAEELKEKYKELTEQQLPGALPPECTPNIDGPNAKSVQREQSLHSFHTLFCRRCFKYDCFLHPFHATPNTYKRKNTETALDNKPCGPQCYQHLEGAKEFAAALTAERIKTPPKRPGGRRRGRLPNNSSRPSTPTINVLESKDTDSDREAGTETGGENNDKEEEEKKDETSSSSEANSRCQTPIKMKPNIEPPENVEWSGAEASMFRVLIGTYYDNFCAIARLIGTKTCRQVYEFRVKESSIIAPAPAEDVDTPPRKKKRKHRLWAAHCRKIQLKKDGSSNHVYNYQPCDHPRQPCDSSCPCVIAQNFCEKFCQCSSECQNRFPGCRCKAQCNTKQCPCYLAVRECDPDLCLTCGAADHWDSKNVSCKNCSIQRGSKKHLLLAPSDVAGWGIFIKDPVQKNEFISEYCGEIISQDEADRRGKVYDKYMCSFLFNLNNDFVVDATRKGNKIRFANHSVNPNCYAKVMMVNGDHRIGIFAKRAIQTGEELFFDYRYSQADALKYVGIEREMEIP
Sequence of EZH2 (O75530 whole entry partner): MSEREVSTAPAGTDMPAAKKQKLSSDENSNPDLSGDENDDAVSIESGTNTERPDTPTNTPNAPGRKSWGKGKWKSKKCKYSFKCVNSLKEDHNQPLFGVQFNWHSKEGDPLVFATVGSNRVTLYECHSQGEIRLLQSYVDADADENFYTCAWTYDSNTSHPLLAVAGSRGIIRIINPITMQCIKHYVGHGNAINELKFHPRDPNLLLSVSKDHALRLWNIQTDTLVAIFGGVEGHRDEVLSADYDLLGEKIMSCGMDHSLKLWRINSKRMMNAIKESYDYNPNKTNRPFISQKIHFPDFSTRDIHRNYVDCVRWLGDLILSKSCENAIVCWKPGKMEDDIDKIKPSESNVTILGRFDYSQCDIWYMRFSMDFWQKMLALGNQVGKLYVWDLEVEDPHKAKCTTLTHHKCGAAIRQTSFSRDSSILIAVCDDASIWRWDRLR
Sequence of EZH2 (Q15022 whole entry partner): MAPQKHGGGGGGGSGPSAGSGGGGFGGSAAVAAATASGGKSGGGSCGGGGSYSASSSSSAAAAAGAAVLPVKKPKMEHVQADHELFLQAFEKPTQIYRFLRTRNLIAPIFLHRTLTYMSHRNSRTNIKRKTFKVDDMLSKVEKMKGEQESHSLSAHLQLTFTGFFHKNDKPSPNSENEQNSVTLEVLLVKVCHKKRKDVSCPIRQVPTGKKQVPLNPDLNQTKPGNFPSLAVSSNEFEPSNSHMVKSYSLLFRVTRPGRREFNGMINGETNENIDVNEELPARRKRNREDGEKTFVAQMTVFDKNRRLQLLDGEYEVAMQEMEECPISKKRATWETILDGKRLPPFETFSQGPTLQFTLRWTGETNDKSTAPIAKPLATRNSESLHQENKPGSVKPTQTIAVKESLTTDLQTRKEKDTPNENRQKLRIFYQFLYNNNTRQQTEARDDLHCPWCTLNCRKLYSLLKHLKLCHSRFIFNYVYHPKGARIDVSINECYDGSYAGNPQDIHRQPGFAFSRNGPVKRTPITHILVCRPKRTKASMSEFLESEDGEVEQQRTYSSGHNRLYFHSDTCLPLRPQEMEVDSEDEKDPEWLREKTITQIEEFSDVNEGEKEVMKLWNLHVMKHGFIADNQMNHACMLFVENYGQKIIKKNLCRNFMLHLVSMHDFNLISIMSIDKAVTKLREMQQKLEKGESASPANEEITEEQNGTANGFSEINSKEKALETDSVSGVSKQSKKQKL
Sequence of EZH2 (Q09028 whole entry partner): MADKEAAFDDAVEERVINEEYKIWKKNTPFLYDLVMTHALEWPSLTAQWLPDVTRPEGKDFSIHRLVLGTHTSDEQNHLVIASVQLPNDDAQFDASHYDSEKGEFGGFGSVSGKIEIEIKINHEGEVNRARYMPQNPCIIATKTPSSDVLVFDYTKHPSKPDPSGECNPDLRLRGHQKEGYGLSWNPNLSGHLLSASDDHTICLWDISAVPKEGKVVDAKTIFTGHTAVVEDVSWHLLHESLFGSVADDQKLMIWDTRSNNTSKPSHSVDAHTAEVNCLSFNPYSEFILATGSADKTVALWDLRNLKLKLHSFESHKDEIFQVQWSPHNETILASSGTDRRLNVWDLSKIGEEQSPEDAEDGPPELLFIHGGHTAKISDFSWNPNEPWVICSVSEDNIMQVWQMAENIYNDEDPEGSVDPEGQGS
Sequence of EZH2 (Q6ZN18 whole entry partner): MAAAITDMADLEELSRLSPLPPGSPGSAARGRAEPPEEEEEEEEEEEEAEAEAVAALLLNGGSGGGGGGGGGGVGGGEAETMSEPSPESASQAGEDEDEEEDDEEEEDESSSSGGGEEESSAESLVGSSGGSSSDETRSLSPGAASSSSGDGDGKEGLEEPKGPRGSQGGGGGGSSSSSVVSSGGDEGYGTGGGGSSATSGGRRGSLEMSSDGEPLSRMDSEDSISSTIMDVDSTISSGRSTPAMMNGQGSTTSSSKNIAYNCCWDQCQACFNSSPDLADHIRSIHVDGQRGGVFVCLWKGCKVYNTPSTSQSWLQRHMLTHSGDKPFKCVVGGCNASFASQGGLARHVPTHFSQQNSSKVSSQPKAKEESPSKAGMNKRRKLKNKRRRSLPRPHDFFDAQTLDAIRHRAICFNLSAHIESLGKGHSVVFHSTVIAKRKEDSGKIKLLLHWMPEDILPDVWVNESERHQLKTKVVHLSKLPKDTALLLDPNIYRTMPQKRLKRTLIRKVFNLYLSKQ
Experimental: (§1) The inhibitory activities of the synthetic compounds against EZH1 or EZH2 methyltransferase were measured. The experiment was conducted by Reaction Biology Corp., and the activity of EZH1 or EZH2 was measured using a radiometric scintillation proximity assay. […] The reaction buffer consisted of 50 mmol/L Tris-HCl (pH 8.0), 50 mmol/L NaCl, 1 mmol/L EDTA, 1 mmoL/L DTT, 1 mmol/L PMSF, and 1% DMSO. Trichloroacetic acid was added to terminate the reaction, and PVT streptavidin-coated SPA beads were added to each reaction solution, followed by further reaction at room temperature for 1 hour again. The methylation value of the substrate peptide was measured using the TopCount NXT plate reader.

EZH1 = target: T1, EZH1 (Homo sapiens, UniProt Q92800); assay: Inhibitory activity against EZH1 methyltransferase (radiometric scintillation proximity assay); type: biochemical; settings: 2.3 nmol/L enzyme, 90 minutes, room temperature;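 note: Read-out is methylation of a substrate peptide, captured on streptavidin-coated SPA beads and counted by scintillation, in Tris-HCl buffer at pH 8.0 with 1% DMSO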
T1 construct: purchased Reaction Biology Corp. (contract assay)
T1 sequence (Q92800 whole entry): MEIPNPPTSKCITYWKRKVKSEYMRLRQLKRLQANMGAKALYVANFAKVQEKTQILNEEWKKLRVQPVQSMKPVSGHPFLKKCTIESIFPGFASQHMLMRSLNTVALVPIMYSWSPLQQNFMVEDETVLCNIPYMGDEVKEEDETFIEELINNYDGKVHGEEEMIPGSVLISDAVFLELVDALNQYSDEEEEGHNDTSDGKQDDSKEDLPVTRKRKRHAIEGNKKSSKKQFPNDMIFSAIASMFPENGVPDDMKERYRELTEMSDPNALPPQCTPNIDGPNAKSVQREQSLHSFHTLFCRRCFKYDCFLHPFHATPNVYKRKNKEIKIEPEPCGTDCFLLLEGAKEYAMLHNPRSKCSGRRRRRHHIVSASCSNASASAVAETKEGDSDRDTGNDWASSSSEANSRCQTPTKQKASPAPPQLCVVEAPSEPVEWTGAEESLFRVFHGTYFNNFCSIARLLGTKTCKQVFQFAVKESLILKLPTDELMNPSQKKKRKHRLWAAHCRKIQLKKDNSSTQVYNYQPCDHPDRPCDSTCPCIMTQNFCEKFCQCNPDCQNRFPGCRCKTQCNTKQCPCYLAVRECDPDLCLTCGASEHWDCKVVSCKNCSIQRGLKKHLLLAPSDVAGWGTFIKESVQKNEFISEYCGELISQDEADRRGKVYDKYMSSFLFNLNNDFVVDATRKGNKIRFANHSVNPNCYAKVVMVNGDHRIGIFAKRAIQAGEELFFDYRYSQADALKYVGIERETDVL
T1 sequence (O75530 whole entry partner): as the sequence (O75530 whole entry partner) above
T1 sequence (Q15022 whole entry partner): as the sequence (Q15022 whole entry partner) above
T1 sequence (Q09028 whole entry partner): as the sequence (Q09028 whole entry partner) above
T1 sequence (Q6ZN18 whole entry partner): as the sequence (Q6ZN18 whole entry partner) above
Experimental: as §1

[1] = test system: KARPAS-422 (EZH2 Y641N mutation); assay: Cell growth inhibition test, KARPAS-422; type: cell-based; settings: Homo sapiens, KARPAS-422, 168 h, KARPAS-422, culture time 7 days; read-out: Cell growth inhibitory activity (GI50, nM) KARPAS-422 (EZH2 Y641N mutation)
Experimental: Each type of the cultured cells was seeded in 6-well plates or 48-96 well plates, and subculture or medium replacement was performed every 3 to 4 days. Next, the cells were subcultured for a total of 7 to 14 days, and then seeded in 96-well plates. 3 to 5 days before the measurement of the effect, the cells were seeded in 96-well plates, and then the absorbance (Tz) on the day of seeding was measured. The absorbance after the reaction was measured by the plate reader device Synergy NeoAlpha (Biotek) using Cell-Titer-Glo Cell Viability Assay (Promega, G7573) according to the attached manual. Based on the absorbance (Tz) measured on the seeding day and the absorbance of each of the DMSO-treated group (C) and the sample-added group (Ti) measured on the day of effect determination, the percentage of cell proliferation inhibition was calculated according to the following Equation 1. [(Ti−Tz)/(C−Tz)]×100 for concentrations for which Ti≥Tz […] for concentrations for which Ti<Tz. [Equation 1]

| IC50 (EZH2) [nM] | IC50 (EZH1) [nM] | GI50 [1] [nM] | Structure (SMILES) |
| --- | --- | --- | --- |
| 7.9 | 371 | – | Cc1cc(C)c(CN2CCc3cc4c(cc3C2=O)OC(C)([C@H]2CC[C@H](N(C)C)CC2)O4)c(=O)[nH]1 (stereo partly drawn) [Compound 2, 6-((4,6-dimethyl-2-oxo-1,2-dihydropyridin-3-yl)methyl)-2(trans-4-(dimethylamino)cyclohexyl)-2-methyl-7,8-dihydro-[1,3]dioxolo[4,5-g]isoquinolin-5(6H)-one] |
| 16 | 180 | > 1000 | Cc1cc(C)c(CN2CCc3c(Cl)c4c(c(C)c3C2=O)OC(C)(C2CCCCC2)O4)c(=O)[nH]1 (stereo not shown) [Compound 22, 9-chloro-2-cyclohexyl-6-((4,6-dimethyl-2-oxo-1,2-dihydropyridin-3-yl)methyl)-2,4-dimethyl-7,8-dihydro-[1,3]dioxolo[4,5-g]isoquinolin-5(6H)-one] |
| 3.6 | 65 | 18 | CCN[C@H]1CC[C@H](C2(C)Oc3c(C)c4c(c(Cl)c3O2)CCN(Cc2c(C)cc(C)[nH]c2=O)C4=O)CC1 (stereo partly drawn) [Compound 15, 9-chloro-6-((4,6-dimethyl-2-oxo-1,2-dihydropyridin-3-yl)methyl)-2-(trans-4-(ethylamino)cyclohexyl)-2,4-dimethyl-7,8-dihydro-[1,3]dioxolo[4,5-g]isoquinolin-5(6H)-one] |
| 6.4 | 41 | 19 | Cc1cc(C)c(CN2CCc3c(c(C)c4c(c3C3CC3)OC(C)([C@H]3CC[C@H](N(C)C)CC3)O4)C2=O)c(=O)[nH]1 (stereo partly drawn) [Compound 54, 9-cyclopropyl-6-((4,6-dimethyl-2-oxo-1,2-dihydropyridin-3-yl)methyl)-2-(trans-4-(dimethylamino)cyclohexyl)-2,4-dimethyl-7,8-dihydro-[1,3]dioxolo[4,5-g]isoquinolin-5(6H)-one] |
| 0.4 | 34 | – | Cc1cc(C)c(CN2CCc3c(C)c4c(c(C)c3C2=O)OC(C)(C2CCCCC2)O4)c(=O)[nH]1 (stereo not shown) [Compound 44, 2-cyclohexyl-6-((4,6-dimethyl-2-oxo-1,2-dihydropyridin-3-yl)methyl)-2,4,9-trimethyl-7,8-dihydro-[1,3]dioxolo[4,5-g]isoquinolin-5(6H)-one] |
| 11 | 89 | 68 | CCN(CC)[C@H]1CC[C@H](C2(C)Oc3c(C)c4c(c(Cl)c3O2)CCN(Cc2c(C)cc(C)[nH]c2=O)C4=O)CC1 (stereo partly drawn) [Compound 16, 9-chloro-2-(trans-4-(diethylamino)cyclohexyl)-6-((4,6-dimethyl-2-oxo-1,2-dihydropyridin-3-yl)methyl)-2,4-dimethyl-7,8-dihydro-[1,3]dioxolo[4,5-g]isoquinolin-5(6H)-one] |
| 4.3 | 47 | 16 | Cc1cc(C)c(CN2CCc3c(Cl)c4c(c(C)c3C2=O)OC(C)([C@H]2CC[C@H](N3CCCC3)CC2)O4)c(=O)[nH]1 (stereo partly drawn) [Compound 18, 9-chloro-6-((4,6-dimethyl-2-oxo-1,2-dihydropyridin-3-yl)methyl)-2,4-dimethyl-2-(trans-4-(pyrrolidin-1-yl)cyclohexyl)-7,8-dihydro-[1,3]dioxolo[4,5-g]isoquinolin-5(6H)-one] |
| 4.4 | – | 440 | CC[C@H](O)C(=O)N[C@H]1CC[C@H](C2(C)Oc3c(C)c4c(c(Cl)c3O2)CCN(Cc2c(C)cc(C)[nH]c2=O)C4=O)CC1 (stereo partly shown) [Compound 19] |
| 3.2 | 27 | 50 | CCCc1cc(C)[nH]c(=O)c1CN1CCc2c(Cl)c3c(c(C)c2C1=O)OC(C)([C@H]1CC[C@H](N(C)C)CC1)O3 (stereo partly drawn) [Compound 14, 9-chloro-2-(trans-4-(dimethylamino)cyclohexyl)-2,4-dimethyl-6-((6-methyl-2-oxo-4-propyl-1,2-dihydropyridin-3-yl)methyl)-7,8-dihydro-[1,3]dioxolo[4,5-g]isoquinolin-5(6H)-one] |
| 9.7 | 16 | – | CCN(CC)[C@H]1CC[C@H](C2(C)Oc3c(C)c4c(c(C)c3O2)C(=O)N(Cc2c(OC)cc(C)[nH]c2=O)CC4)CC1 (stereo partly drawn) [Compound 46, 2-(trans-4-(diethylamino)cyclohexyl)-6-((4-methoxy-6-methyl-2-oxo-1,2-dihydropyridin-3-yl)methyl)-2,4,9-trimethyl-7,8-dihydro-[1,3]dioxolo[4,5-g]isoquinolin-5(6H)-one] |

Continued, compound first:

| Structure (SMILES) | IC50 (EZH2) [nM] | IC50 (EZH1) [nM] | GI50 [1] [nM] |
| --- | --- | --- | --- |
| CCN[C@H]1CC[C@H](C2(C)Oc3c(C)c4c(c(C)c3O2)C(=O)N(Cc2c(OC)cc(C)[nH]c2=O)CC4)CC1 (stereo partly drawn) [Compound 45, 2-(trans-4-(ethylamino)cyclohexyl)-6-((4-methoxy-6-methyl-2-oxo-1,2-dihydropyridin-3-yl)methyl)-2,4,9-trimethyl-7,8-dihydro-[1,3]dioxolo[4,5-g]isoquinolin-5(6H)-one] | 6.2 | 18 | – |
| Cc1cc(C)c(CN2CCc3c(Cl)c4c(c(C)c3C2=O)OC(C)(c2ccc(N(C)C)cc2)O4)c(=O)[nH]1 (stereo not shown) [Compound 25, 9-chloro-6-((4,6-dimethyl-2-oxo-1,2-dihydropyridin-3-yl)methyl)-2-(4-(dimethylamino)phenyl)-2,4-dimethyl-7,8-dihydro-[1,3]dioxolo[4,5-g]isoquinolin-5(6H)-one] | 11 | 166 | – |
| Cc1cc(C)c(CN2CCc3cc4c(c(C)c3C2=O)OC(C)([C@H]2CC[C@H](N(C)C)CC2)O4)c(=O)[nH]1 (stereo partly drawn) [Compound 1, 6-((4,6-dimethyl-2-oxo-1,2-dihydropyridin-3-yl)methyl)-2(trans-4-(dimethylamino)cyclohexyl)-2,4-dimethyl-7,8-dihydro-[1,3]dioxolo[4,5-g]isoquinolin-5(6H)-one] | 14.3 | 97.6 | – |
| Cc1cc(C)c(CN2CCc3c(Cl)c4c(c(C)c3C2=O)OC(C)(c2c(C)noc2C)O4)c(=O)[nH]1 (stereo not shown) [Compound 27] | 3.9 | 310 | – |
| CC[C@@H](O)C(=O)N1CCC(C2(C)Oc3c(C)c4c(c(Cl)c3O2)CCN(Cc2c(C)cc(C)[nH]c2=O)C4=O)CC1 (stereo partly drawn) [Compound 30, 9-chloro-6-((4,6-dimethyl-2-oxo-1,2-dihydropyridin-3-yl)methyl)-2-(1-((R)-2-hydroxybutanoyl)piperidin-4-yl)-2,4-dimethyl-7,8-dihydro-[1,3]dioxolo[4,5-g]isoquinolin-5(6H)-one] | 3.4 | 190 | 307 |
| Cc1cc(C)c(CN2CCc3c(C)c4c(c(C)c3C2=O)OC(C)([C@H]2CC[C@H](N)CC2)O4)c(=O)[nH]1 (stereo partly drawn) [Compound 38, 2-(trans-4-aminocyclohexyl)-6-((4,6-dimethyl-2-oxo-1,2-dihydropyridin-3-yl)methyl)-2,4,9-trimethyl-7,8-dihydro-[1,3]dioxolo[4,5-g]isoquinolin-5(6H)-one] | 4.4 | 54 | – |
| CCN(C)[C@H]1CC[C@H](C2(C)Oc3c(C)c4c(c(C)c3O2)C(=O)N(Cc2c(OC)cc(C)[nH]c2=O)CC4)CC1 (stereo partly shown) [Compound 47] | 7 | 20 | – |
| Cc1cc(C)c(CN2CCc3c(c(C)c4c(c3-c3ccc(CN5CCOCC5)cc3)OC(C)([C@H]3CC[C@H](N(C)C)CC3)O4)C2=O)c(=O)[nH]1 (stereo partly drawn) [Compound 55, 6-((4,6-dimethyl-2-oxo-1,2-dihydropyridin-3-yl)methyl)-2-(trans-4-(dimethylamino)cyclohexyl)-2,4-dimethyl-9-(4-(morpholinomethyl)phenyl)-7,8-dihydro-[1,3]dioxolo[4,5-g]isoquinolin-5(6H)-one] | 5.6 | 26 | – |
